For three molecules, remaining binding results are on record in US12479847B2 (DANA-FARBER CANCER INSTITUTE, INC., priority 2019, dated 2025).

Structures are written as SMILES.

What all share (experiment): KINOMEscan (ScanMAX) kinase profiling
Holding throughout (assay type): binding

In assay [1] the target is T1, panel of 468 kinases (Homo sapiens, UniProt P22607, G697C).
T1 construct: purchased KINOMEscan (ScanMAX) service
The settings on record: FGFR3(G697C); 1 μM; read-out: % control.

The target in assay [2] is T2, panel of 468 kinases (Homo sapiens, UniProt P15735).
T2 construct: purchased KINOMEscan (ScanMAX) service
T2 sequence (P15735 1-406): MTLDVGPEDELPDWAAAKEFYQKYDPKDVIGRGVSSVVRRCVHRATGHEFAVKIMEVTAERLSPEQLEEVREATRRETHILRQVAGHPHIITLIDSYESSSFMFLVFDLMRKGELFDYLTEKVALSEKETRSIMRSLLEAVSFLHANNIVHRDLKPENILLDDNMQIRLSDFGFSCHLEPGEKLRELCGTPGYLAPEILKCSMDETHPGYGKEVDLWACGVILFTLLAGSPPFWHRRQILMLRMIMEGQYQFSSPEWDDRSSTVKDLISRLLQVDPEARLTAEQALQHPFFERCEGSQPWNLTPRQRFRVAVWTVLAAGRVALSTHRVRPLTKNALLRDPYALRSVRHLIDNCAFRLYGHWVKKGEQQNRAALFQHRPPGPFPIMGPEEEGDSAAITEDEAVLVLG
Conditions: PHKG2; 1 μM; read-out: % control.

Assay [3] deals with T3, panel of 468 kinases (Homo sapiens, UniProt Q99759).
T3 construct: purchased KINOMEscan (ScanMAX) service
T3 sequence (Q99759 1-626): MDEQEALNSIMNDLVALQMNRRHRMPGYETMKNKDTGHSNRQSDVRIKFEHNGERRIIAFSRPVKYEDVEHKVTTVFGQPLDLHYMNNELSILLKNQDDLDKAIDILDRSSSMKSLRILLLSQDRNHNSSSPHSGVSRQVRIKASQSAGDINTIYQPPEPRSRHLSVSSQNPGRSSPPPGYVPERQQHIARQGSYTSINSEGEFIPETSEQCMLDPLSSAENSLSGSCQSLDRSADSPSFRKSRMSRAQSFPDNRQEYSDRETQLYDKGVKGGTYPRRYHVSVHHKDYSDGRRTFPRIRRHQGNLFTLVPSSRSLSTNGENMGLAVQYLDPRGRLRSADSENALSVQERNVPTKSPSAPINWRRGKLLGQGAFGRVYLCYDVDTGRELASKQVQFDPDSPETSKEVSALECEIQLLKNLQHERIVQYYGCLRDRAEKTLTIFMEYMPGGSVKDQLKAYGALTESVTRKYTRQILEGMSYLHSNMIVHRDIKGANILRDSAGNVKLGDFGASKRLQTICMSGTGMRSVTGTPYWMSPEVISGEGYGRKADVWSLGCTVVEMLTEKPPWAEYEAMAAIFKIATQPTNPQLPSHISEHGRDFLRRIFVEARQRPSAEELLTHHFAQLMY
The settings on record: MAP3K3; 1 μM; read-out: % control.

In assay [4] the target is T4, panel of 468 kinases (Homo sapiens, UniProt P07332).
T4 construct: purchased KINOMEscan (ScanMAX) service
T4 sequence (P07332 whole entry): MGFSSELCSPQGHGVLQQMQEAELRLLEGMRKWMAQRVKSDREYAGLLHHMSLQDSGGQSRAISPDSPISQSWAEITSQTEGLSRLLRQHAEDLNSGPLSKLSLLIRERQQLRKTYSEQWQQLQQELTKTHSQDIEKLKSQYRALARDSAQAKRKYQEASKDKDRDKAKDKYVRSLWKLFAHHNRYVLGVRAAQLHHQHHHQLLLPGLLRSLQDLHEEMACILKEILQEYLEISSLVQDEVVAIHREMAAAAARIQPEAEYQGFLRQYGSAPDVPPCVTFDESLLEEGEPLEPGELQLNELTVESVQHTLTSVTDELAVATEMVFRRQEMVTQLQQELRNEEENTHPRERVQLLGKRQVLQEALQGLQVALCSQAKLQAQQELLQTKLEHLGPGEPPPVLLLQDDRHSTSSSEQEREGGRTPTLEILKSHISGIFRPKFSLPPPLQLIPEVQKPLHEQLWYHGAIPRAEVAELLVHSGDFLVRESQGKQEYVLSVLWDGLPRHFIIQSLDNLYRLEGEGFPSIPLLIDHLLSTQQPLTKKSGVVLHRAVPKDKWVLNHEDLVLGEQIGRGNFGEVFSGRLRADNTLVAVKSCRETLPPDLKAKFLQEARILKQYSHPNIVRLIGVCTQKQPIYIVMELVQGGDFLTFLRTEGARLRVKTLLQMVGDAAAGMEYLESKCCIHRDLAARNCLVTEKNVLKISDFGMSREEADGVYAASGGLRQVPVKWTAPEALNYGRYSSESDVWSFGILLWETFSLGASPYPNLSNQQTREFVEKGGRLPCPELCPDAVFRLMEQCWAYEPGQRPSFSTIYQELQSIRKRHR
The settings on record: FES; 1 μM; read-out: % control.

The target in assay [5] is T5, panel of 468 kinases (Homo sapiens, UniProt O00750).
T5 construct: purchased KINOMEscan (ScanMAX) service
T5 sequence (O00750 whole entry): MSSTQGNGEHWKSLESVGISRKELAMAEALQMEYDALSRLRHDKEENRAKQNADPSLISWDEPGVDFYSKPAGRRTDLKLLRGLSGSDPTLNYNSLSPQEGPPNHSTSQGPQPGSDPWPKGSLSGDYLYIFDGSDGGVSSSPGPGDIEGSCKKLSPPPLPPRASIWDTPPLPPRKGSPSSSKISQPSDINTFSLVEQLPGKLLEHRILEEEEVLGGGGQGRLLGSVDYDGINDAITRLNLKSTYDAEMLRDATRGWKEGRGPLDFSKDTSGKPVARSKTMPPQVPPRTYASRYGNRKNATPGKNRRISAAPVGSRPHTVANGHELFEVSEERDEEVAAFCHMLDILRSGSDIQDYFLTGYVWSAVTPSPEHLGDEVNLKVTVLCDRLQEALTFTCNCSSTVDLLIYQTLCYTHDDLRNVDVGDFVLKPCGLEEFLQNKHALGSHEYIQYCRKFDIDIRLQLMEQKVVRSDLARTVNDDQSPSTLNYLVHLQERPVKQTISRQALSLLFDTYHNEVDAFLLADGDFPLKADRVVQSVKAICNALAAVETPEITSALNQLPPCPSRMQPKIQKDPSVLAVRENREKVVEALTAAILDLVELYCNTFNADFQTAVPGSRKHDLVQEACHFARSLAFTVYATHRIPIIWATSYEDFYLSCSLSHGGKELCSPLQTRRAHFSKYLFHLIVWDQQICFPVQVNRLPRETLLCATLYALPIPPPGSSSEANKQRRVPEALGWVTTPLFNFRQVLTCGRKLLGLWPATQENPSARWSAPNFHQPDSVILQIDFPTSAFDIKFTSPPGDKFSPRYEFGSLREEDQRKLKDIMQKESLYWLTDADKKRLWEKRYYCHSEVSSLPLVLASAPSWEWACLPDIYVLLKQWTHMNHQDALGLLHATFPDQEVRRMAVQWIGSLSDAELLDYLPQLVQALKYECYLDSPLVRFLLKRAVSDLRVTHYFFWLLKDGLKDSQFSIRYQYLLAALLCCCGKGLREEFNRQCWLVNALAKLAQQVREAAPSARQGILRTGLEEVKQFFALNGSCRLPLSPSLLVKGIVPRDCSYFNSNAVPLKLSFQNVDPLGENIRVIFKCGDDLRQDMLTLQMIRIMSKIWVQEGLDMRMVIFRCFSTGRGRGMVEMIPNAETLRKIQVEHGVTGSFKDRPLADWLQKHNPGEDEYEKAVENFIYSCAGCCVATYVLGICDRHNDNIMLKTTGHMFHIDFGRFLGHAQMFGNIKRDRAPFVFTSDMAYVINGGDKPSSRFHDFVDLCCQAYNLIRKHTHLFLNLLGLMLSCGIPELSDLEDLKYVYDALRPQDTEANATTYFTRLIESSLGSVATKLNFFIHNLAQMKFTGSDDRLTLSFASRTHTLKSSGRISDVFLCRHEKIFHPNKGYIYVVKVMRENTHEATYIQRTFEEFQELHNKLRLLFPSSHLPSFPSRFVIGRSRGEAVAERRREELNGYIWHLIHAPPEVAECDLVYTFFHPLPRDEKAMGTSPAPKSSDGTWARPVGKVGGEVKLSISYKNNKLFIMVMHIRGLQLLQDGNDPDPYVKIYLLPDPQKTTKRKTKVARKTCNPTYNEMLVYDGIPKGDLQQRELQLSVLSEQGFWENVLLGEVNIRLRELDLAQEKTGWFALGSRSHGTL
The settings on record: PIK3C2B; 1 μM; read-out: % control.

The target in assay [6] is T6, panel of 468 kinases (Homo sapiens, UniProt P41743).
T6 construct: purchased KINOMEscan (ScanMAX) service
T6 sequence (P41743 1-596): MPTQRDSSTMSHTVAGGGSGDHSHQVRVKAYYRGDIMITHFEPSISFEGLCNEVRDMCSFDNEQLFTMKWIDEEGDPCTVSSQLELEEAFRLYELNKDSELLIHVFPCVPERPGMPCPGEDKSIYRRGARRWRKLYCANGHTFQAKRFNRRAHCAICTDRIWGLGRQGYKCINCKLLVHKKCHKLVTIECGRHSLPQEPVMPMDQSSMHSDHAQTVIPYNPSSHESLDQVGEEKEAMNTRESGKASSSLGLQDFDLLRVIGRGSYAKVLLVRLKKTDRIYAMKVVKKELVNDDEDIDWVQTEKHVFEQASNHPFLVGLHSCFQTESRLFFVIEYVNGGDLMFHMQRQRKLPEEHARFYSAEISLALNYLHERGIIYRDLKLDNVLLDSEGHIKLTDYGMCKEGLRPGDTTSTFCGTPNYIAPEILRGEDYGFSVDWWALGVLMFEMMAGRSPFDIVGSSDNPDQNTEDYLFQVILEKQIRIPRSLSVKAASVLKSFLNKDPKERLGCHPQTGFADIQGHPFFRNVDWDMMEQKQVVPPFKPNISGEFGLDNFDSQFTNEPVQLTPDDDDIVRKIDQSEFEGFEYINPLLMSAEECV
Conditions: PRKCI; 1 μM; read-out: % control.

Assay [7] addresses T7, panel of 468 kinases (Homo sapiens, UniProt P35590).
T7 construct: purchased KINOMEscan (ScanMAX) service
Conditions: TIE1; 1 μM; read-out: % control.

In assay [8] the target is T8, panel of 468 kinases (Homo sapiens, UniProt P42684).
T8 construct: purchased KINOMEscan (ScanMAX) service
Conditions: ABL2; 1 μM; read-out: % control.

For assay [9], the target named is T9, panel of 468 kinases (Homo sapiens, UniProt Q9BXA7).
T9 construct: purchased KINOMEscan (ScanMAX) service
T9 sequence (Q9BXA7 1-367): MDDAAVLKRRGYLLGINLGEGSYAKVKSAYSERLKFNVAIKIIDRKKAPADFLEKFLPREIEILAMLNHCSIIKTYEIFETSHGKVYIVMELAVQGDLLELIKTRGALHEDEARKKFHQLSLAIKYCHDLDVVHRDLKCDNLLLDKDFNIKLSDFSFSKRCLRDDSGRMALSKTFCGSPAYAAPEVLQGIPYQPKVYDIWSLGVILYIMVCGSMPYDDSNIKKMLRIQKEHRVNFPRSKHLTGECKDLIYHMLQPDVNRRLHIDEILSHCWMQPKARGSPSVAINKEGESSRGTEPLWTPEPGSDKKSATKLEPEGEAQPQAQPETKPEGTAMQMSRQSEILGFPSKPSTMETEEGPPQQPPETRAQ
Conditions: TSSK1B; 1 μM; read-out: % control.

T7 sequence (P35590 22-1138): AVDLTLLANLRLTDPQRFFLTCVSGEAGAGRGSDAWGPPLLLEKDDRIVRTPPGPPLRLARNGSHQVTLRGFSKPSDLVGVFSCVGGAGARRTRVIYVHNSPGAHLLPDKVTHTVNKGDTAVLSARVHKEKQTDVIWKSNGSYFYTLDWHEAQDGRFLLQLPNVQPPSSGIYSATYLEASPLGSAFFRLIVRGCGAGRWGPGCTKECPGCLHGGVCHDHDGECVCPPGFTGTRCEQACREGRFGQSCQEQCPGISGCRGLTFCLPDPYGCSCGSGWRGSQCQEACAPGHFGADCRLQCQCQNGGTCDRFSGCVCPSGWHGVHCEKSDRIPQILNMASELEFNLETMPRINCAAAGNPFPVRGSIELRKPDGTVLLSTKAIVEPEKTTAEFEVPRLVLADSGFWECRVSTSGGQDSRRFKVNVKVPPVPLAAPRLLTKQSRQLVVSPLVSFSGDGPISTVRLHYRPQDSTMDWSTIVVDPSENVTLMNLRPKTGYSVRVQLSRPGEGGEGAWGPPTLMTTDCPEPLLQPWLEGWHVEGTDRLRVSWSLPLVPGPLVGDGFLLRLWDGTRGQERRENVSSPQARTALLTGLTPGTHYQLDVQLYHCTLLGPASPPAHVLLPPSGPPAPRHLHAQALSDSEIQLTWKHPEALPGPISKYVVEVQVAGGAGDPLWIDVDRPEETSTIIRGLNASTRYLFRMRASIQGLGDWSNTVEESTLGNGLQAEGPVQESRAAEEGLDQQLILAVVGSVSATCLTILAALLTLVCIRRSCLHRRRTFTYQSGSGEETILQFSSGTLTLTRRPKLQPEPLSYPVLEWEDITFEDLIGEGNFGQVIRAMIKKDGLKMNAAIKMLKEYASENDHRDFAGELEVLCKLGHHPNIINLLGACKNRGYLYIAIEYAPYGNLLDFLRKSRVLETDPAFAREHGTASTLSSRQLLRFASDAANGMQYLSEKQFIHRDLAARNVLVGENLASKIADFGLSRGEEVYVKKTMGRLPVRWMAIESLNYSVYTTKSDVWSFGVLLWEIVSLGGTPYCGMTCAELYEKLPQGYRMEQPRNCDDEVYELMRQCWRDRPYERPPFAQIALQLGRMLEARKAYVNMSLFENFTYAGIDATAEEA
T1 sequence (P22607 23-806 G697C): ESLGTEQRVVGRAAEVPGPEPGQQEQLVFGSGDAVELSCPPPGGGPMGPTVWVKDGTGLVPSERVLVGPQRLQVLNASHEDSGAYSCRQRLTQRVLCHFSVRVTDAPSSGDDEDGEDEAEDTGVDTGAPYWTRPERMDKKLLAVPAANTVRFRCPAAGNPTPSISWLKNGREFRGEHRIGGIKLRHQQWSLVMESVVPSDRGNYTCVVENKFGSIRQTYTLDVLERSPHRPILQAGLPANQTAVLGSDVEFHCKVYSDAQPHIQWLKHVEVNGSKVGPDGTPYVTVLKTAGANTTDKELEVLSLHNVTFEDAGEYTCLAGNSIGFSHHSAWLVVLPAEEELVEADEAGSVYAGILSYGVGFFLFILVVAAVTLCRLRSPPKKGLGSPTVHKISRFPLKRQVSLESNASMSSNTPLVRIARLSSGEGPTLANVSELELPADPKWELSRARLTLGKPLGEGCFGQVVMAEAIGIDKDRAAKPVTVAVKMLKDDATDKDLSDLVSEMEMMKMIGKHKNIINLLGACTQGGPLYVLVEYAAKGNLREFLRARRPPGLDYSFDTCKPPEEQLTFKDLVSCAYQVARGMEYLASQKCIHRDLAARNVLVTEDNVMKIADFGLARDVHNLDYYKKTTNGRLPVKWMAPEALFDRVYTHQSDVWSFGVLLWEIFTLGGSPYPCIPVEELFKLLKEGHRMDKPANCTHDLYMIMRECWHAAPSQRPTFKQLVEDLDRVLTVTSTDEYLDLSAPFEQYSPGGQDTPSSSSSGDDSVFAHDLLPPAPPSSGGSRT

As to `CNc1nc(Nc2ccc(S(=O)(=O)N3CCC(N4CCOCC4)CC3)cc2OC)nc2[nH]cc(Cl)c12` [Compound 12, 5-chloro-N2-(2-methoxy-4-((4-morpholinopiperidin-1-yl)sulfonyl)phenyl)-N4-methyl-7H-pyrrolo[2,3-d]pyrimidine-2,4-diamine], the remaining binding at 1 µM at panel of 468 kinases [1] is 100%; on panel of 468 kinases [2], 11%; on panel of 468 kinases [3], 100%; on panel of 468 kinases [4], 100%; on panel of 468 kinases [5], 100%; on panel of 468 kinases [6], 54%. In addition, the remaining binding at 1 µM came out at 100% on panel of 468 kinases [7], 78% on panel of 468 kinases [8] and 72% on panel of 468 kinases [9].
Turning to `CNc1nc(Nc2ccc(P3(=O)CCN(C4CCOCC4)CC3)cc2OC)nc2[nH]cc(Cl)c12` [Compound 77, 4-(4-((5-chloro-4-(methylamino)-7H-pyrrolo[2,3-d]pyrimidin-2-yl)amino)-3-methoxyphenyl)-1-(tetrahydro-2H-pyran-4-yl)-1,4-azaphosphinane 4-oxide], the remaining binding at 1 µM was 100% at panel of 468 kinases [1]; 1.9% on panel of 468 kinases [2]; 100% at panel of 468 kinases [3]; 80% at panel of 468 kinases [4]; 96% at panel of 468 kinases [5]; 55% at panel of 468 kinases [6]. The remaining binding at 1 µM at panel of 468 kinases [7] is 100%; at panel of 468 kinases [8], 100%; at panel of 468 kinases [9] it was 33%.
Regarding `CNc1nc(Nc2ccc(C(=O)N3CCC(N4CCOCC4)CC3)c3c2OCO3)nc2[nH]cc(Cl)c12` [Compound 75, (7-((5-chloro-4-(methylamino)-7H-pyrrolo[2,3-d]pyrimidin-2-yl)amino)benzo[d][1,3]dioxol-4-yl)(4-morpholinopiperidin-1-yl)methanone], the remaining binding at 1 µM at panel of 468 kinases [1] worked out at 100%; on panel of 468 kinases [2], 5.3%; at panel of 468 kinases [3] it was 43%; at panel of 468 kinases [4], 81%; on panel of 468 kinases [5], 100%; on panel of 468 kinases [6] it was 65%. The remaining binding at 1 µM on panel of 468 kinases [7] is 100%; at panel of 468 kinases [8], 100%; at panel of 468 kinases [9], 49%.
